Measured values reported in paper PMC10486429, “Investigations Using Albumin Binders to Modify the Tissue Distribution Profile of Radiopharmaceuticals Exemplified with Folate Radioconjugates” (Cancers, 2023).

Test system: KB tumor-bearing athymic nude mice
Assay: Biodistribution of 177Lu-RedFols in KB tumor-bearing mice
Format: in vivo, mouse
Method: Athymic nude mice (Crl:CD1-Foxn^nu) were kept on a folate-deficient rodent diet (ssniff Spezialdiäten GmbH, Soest, Germany) for at least one week prior to inoculation with the tumor cells. Biodistribution studies were performed approx. two weeks after subcutaneous inoculation with KB tumor cells (5 × 10^6 in 100 μL PBS) (Supplementary Materials Section S12). […] Data were presented as the average ± SD of n = 3−4 mice.
Purpose: Biodistribution studies were performed in KB tumor-bearing athymic nude mice (Crl:CD1-Foxnnu) in order to investigate the tissue distribution profiles of the novel radioconjugates. The aim was to compare the impact of the two different albumin binders (4-(p-iodophenyl)butanoate unit vs. 5-(p-iodophenyl)pentanoate unit), and that of the in-corporation of an AMBA linker adjacent to the albumin binder on the distribution profile of the resulting folate radioconjugates.
Methods: The methods are described in the main article. The mice were sacrificed at […]

For CN1c2c(nc(N)[nH]c2=O)NCC1CNc1ccc(C(=O)NC(CCC(=O)NC(CCCCNC(=O)CN2CCN(CC(=O)[O-])CCN(CC(=O)[O-])CCN(CC(=O)[O-])CC2)C(=O)NC(CCCCNC(=O)c2ccc(CNC(=O)CCCCc3ccc(I)cc3)cc2)C(=O)O)C(=O)O)cc1.[177Lu+3] (stereo not drawn) [[^177Lu]Lu-6S-RedFol-25], the “Blood, accumulated activity” value (1 h p.i.) was 13 ± 2 % IA/g, the “Bone, accumulated activity” value (1 h p.i.) was 1.4 ± 0.2 % IA/g and the “Intestines, accumulated activity” value (1 h p.i.) was 1.3 ± 0.3 % IA/g. The “KB tumor, accumulated activity” value (1 h p.i.) was 17 ± 2 % IA/g, the “Kidneys, accumulated activity” value (1 h p.i.) was 38 ± 5 % IA/g and the “Liver, accumulated activity” value (1 h p.i.) was 2.3 ± 0.1 % IA/g. The “Lung, accumulated activity” value (1 h p.i.) was 5.5 ± 0.8 % IA/g, the “Muscle, accumulated activity” value (1 h p.i.) was 1.2 ± 0.2 % IA/g and the “Salivary glands, accumulated activity” value (1 h p.i.) was 2.2 ± 1.5 % IA/g. For the same compound, the “Spleen, accumulated activity” value (1 h p.i.) was 1.4 ± 0.2 % IA/g, the “Stomach, accumulated activity” value (1 h p.i.) was 1.3 ± 0.2 % IA/g and the Tumor-to-blood ratio (1 h p.i.) was 1.3 ± 0.1. The Tumor-to-kidney ratio (1 h p.i.) was 0.45 ± 0.02, the Tumor-to-liver ratio (1 h p.i.) was 7.4 ± 0.6 and the “Blood, accumulated activity” value (4 h p.i.) was 8.4 ± 2.8 % IA/g. For the same compound, the “Bone, accumulated activity” value (4 h p.i.) was 1.1 ± 0.4 % IA/g, the “Intestines, accumulated activity” value (4 h p.i.) was 1.2 ± 0.4 % IA/g and the “KB tumor, accumulated activity” value (4 h p.i.) was 32 ± 8 % IA/g. For the same compound, the “Kidneys, accumulated activity” value (4 h p.i.) was 88 ± 23 % IA/g, the “Liver, accumulated activity” value (4 h p.i.) was 1.9 ± 0.5 % IA/g and the “Lung, accumulated activity” value (4 h p.i.) was 4.1 ± 1.4 % IA/g. For the same compound, the “Muscle, accumulated activity” value (4 h p.i.) was 0.92 ± 0.27 % IA/g, the “Salivary glands, accumulated activity” value (4 h p.i.) was 1.9 ± 1.1 % IA/g and the “Spleen, accumulated activity” value (4 h p.i.) was 1.3 ± 0.3 % IA/g. The “Stomach, accumulated activity” value (4 h p.i.) was 1.0 ± 0.4 % IA/g, the Tumor-to-blood ratio (4 h p.i.) was 4.0 ± 1.2 and the Tumor-to-kidney ratio (4 h p.i.) was 0.37 ± 0.05. For the same compound, the Tumor-to-liver ratio (4 h p.i.) was 18 ± 5, the “Blood, accumulated activity” value (24 h p.i.) was 0.15 ± 0.09 % IA/g and the “Bone, accumulated activity” value (24 h p.i.) was 0.14 ± 0.05 % IA/g. The “Intestines, accumulated activity” value (24 h p.i.) was 0.10 ± 0.03 % IA/g, the “KB tumor, accumulated activity” value (24 h p.i.) was 37 ± 4 % IA/g and the “Kidneys, accumulated activity” value (24 h p.i.) was 121 ± 13 % IA/g. The “Liver, accumulated activity” value (24 h p.i.) was 0.56 ± 0.07 % IA/g, the “Lung, accumulated activity” value (24 h p.i.) was 0.27 ± 0.06 % IA/g and the “Muscle, accumulated activity” value (24 h p.i.) was 0.10 ± 0.02 % IA/g. For the same compound, the “Salivary glands, accumulated activity” value (24 h p.i.) was 0.49 ± 0.04 % IA/g, the “Spleen, accumulated activity” value (24 h p.i.) was 0.42 ± 0.05 % IA/g and the “Stomach, accumulated activity” value (24 h p.i.) was 0.13 ± 0.04 % IA/g. For the same compound, the Tumor-to-blood ratio (24 h p.i.) was 316 ± 150, the Tumor-to-kidney ratio (24 h p.i.) was 0.31 ± 0.02 and the Tumor-to-liver ratio (24 h p.i.) was 67 ± 16.
